Columns and labels:
[1] = target: T1, androgen receptor (Homo sapiens, UniProt P10275, T878A); test: PSA (6.1 kb)-luciferase reporter assay in LNCaP cells induced with R1881; assay type: cell-based; conditions: R1881 1 nM, 48 h, mean with standard error
T1 construct: endogenous in cells; host or cells: LNCaP
T1 sequence (P10275 1-920 T878A): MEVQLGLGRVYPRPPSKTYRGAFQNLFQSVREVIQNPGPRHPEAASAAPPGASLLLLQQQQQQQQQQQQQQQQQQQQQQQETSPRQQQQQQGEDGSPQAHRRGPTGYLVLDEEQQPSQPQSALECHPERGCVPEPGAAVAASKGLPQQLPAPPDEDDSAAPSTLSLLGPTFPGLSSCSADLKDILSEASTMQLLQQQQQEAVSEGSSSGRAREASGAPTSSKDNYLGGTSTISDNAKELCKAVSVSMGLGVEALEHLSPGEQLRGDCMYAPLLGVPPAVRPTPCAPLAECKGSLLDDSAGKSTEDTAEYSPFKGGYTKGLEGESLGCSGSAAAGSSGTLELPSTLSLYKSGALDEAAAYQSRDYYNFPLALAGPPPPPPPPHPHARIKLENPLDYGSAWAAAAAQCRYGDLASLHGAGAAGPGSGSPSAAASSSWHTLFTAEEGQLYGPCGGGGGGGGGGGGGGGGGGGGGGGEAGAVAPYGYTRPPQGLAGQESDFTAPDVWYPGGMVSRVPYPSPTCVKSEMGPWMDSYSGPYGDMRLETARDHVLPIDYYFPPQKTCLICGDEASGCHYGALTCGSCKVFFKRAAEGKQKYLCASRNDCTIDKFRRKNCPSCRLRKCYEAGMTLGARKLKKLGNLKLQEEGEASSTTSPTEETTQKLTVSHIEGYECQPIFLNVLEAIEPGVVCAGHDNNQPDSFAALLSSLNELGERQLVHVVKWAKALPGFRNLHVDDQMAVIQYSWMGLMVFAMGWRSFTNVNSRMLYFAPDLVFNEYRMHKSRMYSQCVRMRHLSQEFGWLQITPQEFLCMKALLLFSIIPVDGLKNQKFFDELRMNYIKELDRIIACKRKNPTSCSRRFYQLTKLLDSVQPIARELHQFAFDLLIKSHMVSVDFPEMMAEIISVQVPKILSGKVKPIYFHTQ
Procedure: LNCaP cells (3×10^4) were seeded into 24-well plates overnight. […] Luciferase activities were measured and normalized to protein concentration determined by the Bradford assay. IC50 calculations were done using OriginPro 8.1 Software (Northampton, MA, USA). Transfection experiments to determine IC50 values were performed in at least 4 independent experiments (“trials”) using triplicate wells.

[2] = system: LNCaP xenografts; test: LNCaP xenograft model in castrated NOD-SCID mice, tumor volume; assay type: in vivo
Procedure: LNCaP Cell Preparation: LNCaP cells were passaged prior to seeding in T175flasks at a concentration of ˜2-3×10^7/mL. The cells were grown for 7 days until 90% confluent. Cell preparations were then prepared in RPMI with 5% FBS/Matrigel (50/50, v/v) yielding a final concentration of 1×10^8/mL.
Tumor Induction and Treatment: Six to eight week old NOD-SCID mice were received from BC Cancer Research Centre's Animal Resource Centre and acclimated for 28 days. Tumors were initiated with […]. Tumors were allowed to grow to an average size of approximately 100 mm^3. Mice were then castrated and the tumors allowed to adapt for a period of one week before first dose was administered. Tumor volume was measured as length×width×height in mm multiplied by 0.5236.
Compound Preparation and Treatment: Compound 1a was dissolved in 100% DMSO (ATCC Lot 61908420) to yield a stock solution of 157 mg/mL. Compound 1a was administered as an oral gavage once per day at dose levels of 10 and 30 mg/kg. Vehicle control animals were administered 1% CMC formulation as an oral gavage once daily. […]
Oral treatment was initiated one week after castration. […] Two days after the last dose, the tumours were measured and harvested. Body weight was assessed daily throughout the treatment period. Tumor volume was measured on day −7 (castration day), and again on days 1, 4, 8, 12, 16, 20, 24 and 26.

[3] = Body weight in LNCaP xenograft model; assay type: in vivo, mice; conditions: daily oral 10 or 30 mg/kg, start vs day 26, vs CMC control
Procedure: Compound Preparation and Treatment: Compound 1a was dissolved in 100% DMSO (ATCC Lot 61908420) to yield a stock solution of 157 mg/mL. Compound 1a was administered as an oral gavage once per day at dose levels of 10 and 30 mg/kg. Vehicle control animals were administered 1% CMC formulation as an oral gavage once daily. CMC (n=17 tumours); 10 mg/kg (n=15 tumours); 30 mg/kg (n=14 tumours). CMC (n=9 animals); 10 mg/kg (n=9 animals); 30 mg/kg (n=9 animals).
Oral treatment was initiated one week after castration. The start of treatment was designated “Day 1” and animals were treated once daily for a total of 24 doses. Two days after the last dose, the tumours were measured and harvested. Body weight was assessed daily throughout the treatment period. Tumor volume was measured on day −7 (castration day), and again on days 1, 4, 8, 12, 16, 20, 24 and 26.

[4] = system: PSA mRNA; test: PSA mRNA in LNCaP xenografts by QPCR; assay type: in vivo, mice
From the text: Quantitative Real-Time Polymerase Chain Reaction (QPCR) Method: LNCaP xenografts were homogenized using TRIzol® reagent (Invitrogen™), and total RNA was extracted using PureLink RNA Mini Kit (Life Technologies). Amplification Grade DNase I treatment (Sigma-Aldrich) was applied to the RNA before RT-PCR using High Capacity RNA-to-DNA kit (Life Technologies) to generate cDNA. cDNA and gene-specific primers were combined with Platinum® SYBR® Green qPCRSuperMix-UDG with ROX (Invitrogen™). Transcripts were measured by quantitative real-time PCR (QPCR) using ABI PRISM 7900 Sequence Detection System (ABI PRISM®, Applied Biosystems by Life Technologies) in triplicates for each biological sample. Gene expression levels were normalized to housekeeping gene RPL13A. Primers for PSA have been previously described (Andersen R. J., et al. Cancer Cell. 2010; Myung J. K., et al. J. Clin. Invest. 2013).
In FIG. 6, bars represent mean±SEM with n=5 representative tumors from each treatment group. One-way ANOVA post-hoc Tukey's multiple comparisons test was performed for statistical analysis. *p<0.05; **p<0.01; ***p<0.001.

| Compound | IC50 [1] [nM] | also measured |
| --- | --- | --- |
| CC(=O)OC[C@H](COc1ccc(C(C)(C)c2ccc(OC[C@@H](CCl)OC(C)=O)cc2)cc1)OC(C)=O [B, reference compound] | 10700 ± 1040 | – |
| CC(C)(c1ccc(OC[C@H](O)CO)cc1)c1ccc(OC[C@H](O)CCl)c(Cl)c1 [C, reference compound] | 2470 ± 260 | – |
| CC(C)(c1ccc(OC[C@H](O)CO)cc1)c1cc(Cl)c(OC[C@H](O)CCl)c(Cl)c1 [Compound 1a, (R)-3-(4-(2-(3,5-dichloro-4-((S)-3-chloro-2-hydroxypropoxy)phenyl)propan-2-yl)phenoxy)propane-1,2-diol] | 1410 ± 270 | tumor growth / tumor volume at the end of the treatment period ([2]; daily oral 10 mg/kg or 30 mg/kg, castrated NOD-SCID mice, day 26, vs CMC control): inhibition of tumor growth and significant reduction of tumor volume; difference in tumor volumes between the 10 mg/kg and 30 mg/kg doses ([2]; daily oral, 10 mg/kg vs 30 mg/kg): no statistical difference in the tumor volumes; start and finish body weights [3]: no significant differences between the start and finish body weights; mRNA expression of PSA in tumors ([4]; 30 mg/kg oral daily, compared to the 10 mg/kg dose and control treatment): significant reduction of PSA expression; mRNA expression of PSA in tumors ([4]; 10 and 30 mg/kg oral daily, QPCR normalized to RPL13A, n=5 tumors): dose-dependent inhibition of the mRNA expression of PSA |
| COC[C@@H](O)COc1ccc(C(C)(C)c2cc(Cl)c(OC[C@H](O)CCl)c(Cl)c2)cc1 [Compound 5a, (S)-1-chloro-3-(2,6-dichloro-4-(2-(4-((R)-2-hydroxy-3-methoxypropoxy)phenyl)propan-2-yl)phenoxy)propan-2-ol] | 1030 ± 390 | – |
| CC(C)(c1ccc(OC[C@H](O)Cn2ccnc2)cc1)c1cc(Cl)c(OC[C@H](O)CCl)c(Cl)c1 [Compound 9a, (S)-1-chloro-3-(2,6-dichloro-4-(2-(4-((R)-2-hydroxy-3-(1H-imidazol-1-yl)propoxy)phenyl)propan-2-yl)phenoxy)propan-2-ol] | 3120 ± 680 | – |
| CC(C)(c1ccc(OC[C@H](O)CN2CCOCC2)cc1)c1cc(Cl)c(OC[C@H](O)CCl)c(Cl)c1 [Compound 11a, (S)-1-chloro-3-(2,6-dichloro-4-(2-(4-((R)-2-hydroxy-3-morpholinopropoxy)phenyl)propan-2-yl)phenoxy)propan-2-ol] | 1050 ± 150 | – |
| CC(C)(c1ccc(OC[C@H](O)CN)cc1)c1cc(Cl)c(OC[C@H](O)CCl)c(Cl)c1 [Compound 12a, (R)-1-amino-3-(4-(2-(3,5-dichloro-4-((S)-3-chloro-2-hydroxypropoxy)phenyl)propan-2-yl)phenoxy)propan-2-ol] | 2260 ± 240 | – |
| CC(C)(c1ccc(OC[C@H](O)CNS(C)(=O)=O)cc1)c1cc(Cl)c(OC[C@H](O)CCl)c(Cl)c1 [Compound 13a, N-((R)-3-(4-(2-(3,5-dichloro-4-((S)-3-chloro-2-hydroxypropoxy)phenyl)propan-2-yl)phenoxy)-2-hydroxypropyl)methanesulfonamide] | 1000 ± 160 | – |
| CCS(=O)(=O)C[C@@H](O)COc1ccc(C(C)(C)c2cc(Cl)c(OC[C@H](O)CCl)c(Cl)c2)cc1 [Compound 14a, (S)-1-chloro-3-(2,6-dichloro-4-(2-(4-((S)-3-(ethylsulfonyl)-2-hydroxypropoxy)phenyl)propan-2-yl)phenoxy)propan-2-ol] | 950 ± 210 | – |

— patent US11919874B2, “Bisphenol derivatives and their use as androgen receptor activity modulators” (The University of British Columbia, priority 2016, dated 2024)
